In ChEMBL document CHEMBL4052714, “Synthesis and antibacterial activity of novel 4″-O-(1-aralkyl-1,2,3-triazol-4-methyl-carbamoyl) azithromycin analogs” (2017):
In brackets after ≈: the same amount, converted by molar mass.

Assays:
Assay type in all cases: functional
[1] = system: Staphylococcus aureus; assay: Antibacterial activity against erythromycin-susceptible Staphylococcus aureus ATCC 25923
[2] = system: Streptococcus pneumoniae; assay: Antibacterial activity against erythromycin-resistant Streptococcus pneumoniae A22072 expressing mefA gene
[3] = system: Pseudomonas aeruginosa; assay: Antibacterial activity against Pseudomonas aeruginosa ATCC 27853
[4] = system: Streptococcus pneumoniae; assay: Antibacterial activity against erythromycin-resistant Streptococcus pneumoniae AB11 expressing ermB/mefA gene
[5] = system: Streptococcus pneumoniae; assay: Antibacterial activity against erythromycin-susceptible Streptococcus pneumoniae ATCC 49619
[6] = system: Streptococcus pneumoniae; assay: Potency index, ratio of clarithromycin MIC to compound MIC for erythromycin-resistant Streptococcus pneumoniae AB11 expressing ermB/mefA gene
[7] = system: Streptococcus pneumoniae; assay: Potency index, ratio of clarithromycin MIC to compound MIC for erythromycin-resistant Streptococcus pneumoniae A22072 expressing mefA gene
[8] = system: Staphylococcus aureus; assay: Antibacterial activity against methicillin-susceptible Staphylococcus aureus ATCC 29213
[9] = system: Streptococcus pneumoniae; assay: Potency index, ratio of azithromycin MIC to compound MIC for erythromycin-resistant Streptococcus pneumoniae AB11 expressing ermB/mefA gene
[10] = system: Streptococcus pneumoniae; assay: Potency index, ratio of clarithromycin MIC to compound MIC for erythromycin-resistant Streptococcus pneumoniae B1 expressing ermB gene
[11] = system: Escherichia coli; assay: Antibacterial activity against Escherichia coli ATCC 25922
[12] = system: Streptococcus pyogenes; assay: Antibacterial activity against erythromycin-susceptible Streptococcus pyogenes isolate S2
[13] = system: Streptococcus pyogenes; assay: Antibacterial activity against erythromycin-resistant Streptococcus pyogenes isolate R2
[14] = system: Streptococcus pneumoniae; assay: Potency index, ratio of azithromycin MIC to compound MIC for erythromycin-resistant Streptococcus pneumoniae A22072 expressing mefA gene
[15] = system: Streptococcus pneumoniae; assay: Antibacterial activity against erythromycin-resistant Streptococcus pneumoniae B1 expressing ermB gene
[16] = system: Streptococcus pneumoniae; assay: Potency index, ratio of azithromycin MIC to compound MIC for erythromycin-resistant Streptococcus pneumoniae B1 expressing ermB gene
[17] = system: Streptococcus pyogenes; assay: Potency index, ratio of azithromycin MIC to compound MIC for erythromycin-susceptible Streptococcus pyogenes isolate S2

SMILES: CC[C@H]1OC(=O)[C@H](C)[C@@H](O[C@H]2C[C@@](C)(OC)[C@@H](OC(=O)NCc3cn(Cc4ccccc4Cl)nn3)[C@H](C)O2)[C@H](C)[C@@H](O[C@@H]2O[C@H](C)C[C@H](N(C)C)[C@H]2O)[C@](C)(O)C[C@@H](C)CN(C)[C@H](C)[C@@H](OC(=O)NCc2ccc(OC)cc2)[C@]1(C)O
- MIC [1]: 0.03 µg/mL (≈ 0.0258 µM)
- MIC [2]: 0.03 µg/mL (≈ 0.0258 µM)
- MIC [3]: 8 µg/mL (≈ 6.89 µM)
- MIC [4]: 0.125 µg/mL (≈ 0.108 µM)
- MIC [5]: 0.125 µg/mL (≈ 0.108 µM)
- Ratio [6]: 1024 - 2048
- Ratio [7]: 32 - 133
- MIC [8]: 16 µg/mL (≈ 13.8 µM)
- Ratio [9]: 1024 - 2048
- Ratio [10]: 1024 - 2133
- MIC [11]: 32 µg/mL (≈ 27.6 µM)
- MIC [12]: < 0.002 µg/mL
- MIC [13]: 8 µg/mL (≈ 6.89 µM)
- Ratio [14]: 32 - 133
- MIC [15]: 0.06 µg/mL (≈ 0.0517 µM)
- Ratio [16]: 1024 - 2133

SMILES: CC[C@H]1OC(=O)[C@H](C)[C@@H](O[C@H]2C[C@@](C)(OC)[C@@H](OC(=O)NCc3cn(Cc4ccc(Cl)cc4Cl)nn3)[C@H](C)O2)[C@H](C)[C@@H](O[C@@H]2O[C@H](C)C[C@H](N(C)C)[C@H]2O)[C@](C)(O)C[C@@H](C)CN(C)[C@H](C)[C@@H](O)[C@]1(C)O
- MIC [1]: 1 µg/mL (≈ 0.969 µM)
- Ratio [17]: 12.5
- MIC [2]: 0.25 µg/mL (≈ 0.242 µM)
- MIC [3]: 32 µg/mL (≈ 31 µM)
- MIC [4]: 0.25 µg/mL (≈ 0.242 µM)
- MIC [5]: 0.25 µg/mL (≈ 0.242 µM)
- MIC [8]: 16 µg/mL (≈ 15.5 µM)
- Ratio [9]: 1024
- MIC [11]: 64 µg/mL (≈ 62 µM)
- MIC [12]: 0.016 µg/mL (≈ 0.0155 µM)
- MIC [13]: 64 µg/mL (≈ 62 µM)
- Ratio [14]: 16
- MIC [15]: 0.5 µg/mL (≈ 0.484 µM)
- Ratio [16]: 256

SMILES: CC[C@H]1OC(=O)[C@H](C)[C@@H](O[C@H]2C[C@@](C)(OC)[C@@H](OC(=O)NCc3cn(Cc4ccccc4)nn3)[C@H](C)O2)[C@H](C)[C@@H](O[C@@H]2O[C@H](C)C[C@H](N(C)C)[C@H]2O)[C@](C)(O)C[C@@H](C)CN(C)[C@H](C)[C@@H](O)[C@]1(C)O
- MIC [1]: 1 µg/mL (≈ 1.04 µM)
- MIC [2]: 1 µg/mL (≈ 1.04 µM)
- MIC [3]: 32 µg/mL (≈ 33.2 µM)
- MIC [4]: 4 µg/mL (≈ 4.15 µM)
- MIC [5]: 0.5 µg/mL (≈ 0.519 µM)
- MIC [8]: 8 µg/mL (≈ 8.31 µM)
- MIC [11]: 32 µg/mL (≈ 33.2 µM)
- MIC [12]: 0.06 µg/mL (≈ 0.0623 µM)
- MIC [13]: 32 µg/mL (≈ 33.2 µM)
- MIC [15]: 2 µg/mL (≈ 2.08 µM)

SMILES: CC[C@H]1OC(=O)[C@H](C)[C@@H](O[C@H]2C[C@@](C)(OC)[C@@H](OC(=O)NCc3cn(Cc4ccc(C)cc4)nn3)[C@H](C)O2)[C@H](C)[C@@H](O[C@@H]2O[C@H](C)C[C@H](N(C)C)[C@H]2O)[C@](C)(O)C[C@@H](C)CN(C)[C@H](C)[C@@H](OC(=O)NCc2ccc(OC)cc2)[C@]1(C)O
- MIC [1]: 0.06 µg/mL (≈ 0.0526 µM)
- MIC [2]: 0.03 µg/mL (≈ 0.0263 µM)
- MIC [3]: 64 µg/mL (≈ 56.1 µM)
- MIC [4]: 0.25 µg/mL (≈ 0.219 µM)
- MIC [5]: 0.125 µg/mL (≈ 0.11 µM)
- Ratio [6]: 1024 - 2048
- Ratio [7]: 32 - 133
- MIC [8]: 32 µg/mL (≈ 28.1 µM)
- Ratio [9]: 1024 - 2048
- Ratio [10]: 1024 - 2133
- MIC [11]: 16 µg/mL (≈ 14 µM)
- MIC [12]: < 0.002 µg/mL
- MIC [13]: 8 µg/mL (≈ 7.01 µM)
- Ratio [14]: 32 - 133
- MIC [15]: 0.125 µg/mL (≈ 0.11 µM)
- Ratio [16]: 1024 - 2133

SMILES: CC[C@H]1OC(=O)[C@H](C)[C@@H](O[C@H]2C[C@@](C)(OC)[C@@H](OC(=O)NCc3cn(Cc4ccc(C)cc4)nn3)[C@H](C)O2)[C@H](C)[C@@H](O[C@@H]2O[C@H](C)C[C@H](N(C)C)[C@H]2O)[C@](C)(O)C[C@@H](C)CN(C)[C@H](C)[C@@H](O)[C@]1(C)O
- MIC [1]: 1 µg/mL (≈ 1.02 µM)
- MIC [2]: 0.5 µg/mL (≈ 0.512 µM)
- MIC [3]: 64 µg/mL (≈ 65.5 µM)
- MIC [4]: 1 µg/mL (≈ 1.02 µM)
- MIC [5]: 0.5 µg/mL (≈ 0.512 µM)
- MIC [8]: 16 µg/mL (≈ 16.4 µM)
- MIC [11]: 32 µg/mL (≈ 32.7 µM)
- MIC [12]: 0.03 µg/mL (≈ 0.0307 µM)
- MIC [13]: 64 µg/mL (≈ 65.5 µM)
- MIC [15]: 0.5 µg/mL (≈ 0.512 µM)

SMILES: CC[C@H]1OC(=O)[C@H](C)[C@@H](O[C@H]2C[C@@](C)(OC)[C@@H](O)[C@H](C)O2)[C@H](C)[C@@H](O[C@@H]2O[C@H](C)C[C@H](N(C)C)[C@H]2O)[C@](C)(O)C[C@@H](C)CN(C)[C@H](C)[C@@H](O)[C@]1(C)O [AZITHROMYCIN]
- MIC [1]: 0.25 µg/mL (≈ 0.334 µM)
- MIC [2]: 4 µg/mL (≈ 5.34 µM)
- MIC [3]: 8 µg/mL (≈ 10.7 µM)
- MIC [4]: 256 µg/mL (≈ 342 µM)
- MIC [5]: 0.125 µg/mL (≈ 0.167 µM)
- MIC [8]: 1 µg/mL (≈ 1.34 µM)
- MIC [11]: 16 µg/mL (≈ 21.4 µM)
- MIC [12]: 0.03 µg/mL (≈ 0.0401 µM)
- MIC [13]: 128 µg/mL (≈ 171 µM)
- MIC [15]: 128 µg/mL (≈ 171 µM)

SMILES: CC[C@H]1OC(=O)[C@H](C)[C@@H](O[C@H]2C[C@@](C)(OC)[C@@H](O)[C@H](C)O2)[C@H](C)[C@@H](O[C@@H]2O[C@H](C)C[C@H](N(C)C)[C@H]2O)[C@](C)(OC)C[C@@H](C)C(=O)[C@H](C)[C@@H](O)[C@]1(C)O [CLARITHROMYCIN]
- MIC [1]: 0.12 µg/mL (≈ 0.16 µM)
- MIC [2]: 4 µg/mL (≈ 5.35 µM)
- MIC [3]: 32 µg/mL (≈ 42.8 µM)
- MIC [4]: 128 µg/mL (≈ 171 µM)
- MIC [5]: 0.125 µg/mL (≈ 0.167 µM)
- MIC [8]: 0.25 µg/mL (≈ 0.334 µM)
- MIC [11]: 64 µg/mL (≈ 85.6 µM)
- MIC [12]: 0.03 µg/mL (≈ 0.0401 µM)
- MIC [13]: 128 µg/mL (≈ 171 µM)
- MIC [15]: 128 µg/mL (≈ 171 µM)
